The text below walks through data of ChEMBL document CHEMBL3132769, “Fragment growing to retain or alter the selectivity of anchored kinase hinge-binding fragments” (Medchemcomm, 2014).

Usually inhibition stands for the change of the read-out against control, counted positive when it falls.

For test [1], the target named is T1, Mitogen-activated protein kinase 12 (Homo sapiens) (UniProt P53778).
T1 sequence (whole entry): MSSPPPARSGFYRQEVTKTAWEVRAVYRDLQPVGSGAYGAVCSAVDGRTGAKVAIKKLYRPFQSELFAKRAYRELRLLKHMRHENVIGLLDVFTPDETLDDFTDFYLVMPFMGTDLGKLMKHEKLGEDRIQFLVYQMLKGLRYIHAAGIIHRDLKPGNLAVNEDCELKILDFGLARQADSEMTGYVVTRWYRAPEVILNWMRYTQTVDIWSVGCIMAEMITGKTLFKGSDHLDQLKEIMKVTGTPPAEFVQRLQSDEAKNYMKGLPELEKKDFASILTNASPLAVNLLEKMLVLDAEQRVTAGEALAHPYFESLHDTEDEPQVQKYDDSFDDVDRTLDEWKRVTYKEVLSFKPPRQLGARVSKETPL
Description: Inhibition of human full length p38 gamma expressed in Escherichia coli cell assessed as substrate phosphorylation using fluorescence-labelled peptides as substrate at 0.1 uM after 90 mins by microfluidic peptide phosphorylation assay.

In test [2] the test system is Fibroblast growth factor receptor 2 (Homo sapiens), P21802 [N549H]. Description: Inhibition of human FGFR2 N549H mutant catalytic domain expressed in baculovirus assessed as substrate phosphorylation using fluorescence-labelled peptides as substrate at 0.2 uM after 90 mins by microfluidic peptide phosphorylation assay.
Sequence of Fibroblast growth factor receptor 2 (Homo sapiens), P21802 [N549H] (P21802 whole entry N549H, the tested form may be a part): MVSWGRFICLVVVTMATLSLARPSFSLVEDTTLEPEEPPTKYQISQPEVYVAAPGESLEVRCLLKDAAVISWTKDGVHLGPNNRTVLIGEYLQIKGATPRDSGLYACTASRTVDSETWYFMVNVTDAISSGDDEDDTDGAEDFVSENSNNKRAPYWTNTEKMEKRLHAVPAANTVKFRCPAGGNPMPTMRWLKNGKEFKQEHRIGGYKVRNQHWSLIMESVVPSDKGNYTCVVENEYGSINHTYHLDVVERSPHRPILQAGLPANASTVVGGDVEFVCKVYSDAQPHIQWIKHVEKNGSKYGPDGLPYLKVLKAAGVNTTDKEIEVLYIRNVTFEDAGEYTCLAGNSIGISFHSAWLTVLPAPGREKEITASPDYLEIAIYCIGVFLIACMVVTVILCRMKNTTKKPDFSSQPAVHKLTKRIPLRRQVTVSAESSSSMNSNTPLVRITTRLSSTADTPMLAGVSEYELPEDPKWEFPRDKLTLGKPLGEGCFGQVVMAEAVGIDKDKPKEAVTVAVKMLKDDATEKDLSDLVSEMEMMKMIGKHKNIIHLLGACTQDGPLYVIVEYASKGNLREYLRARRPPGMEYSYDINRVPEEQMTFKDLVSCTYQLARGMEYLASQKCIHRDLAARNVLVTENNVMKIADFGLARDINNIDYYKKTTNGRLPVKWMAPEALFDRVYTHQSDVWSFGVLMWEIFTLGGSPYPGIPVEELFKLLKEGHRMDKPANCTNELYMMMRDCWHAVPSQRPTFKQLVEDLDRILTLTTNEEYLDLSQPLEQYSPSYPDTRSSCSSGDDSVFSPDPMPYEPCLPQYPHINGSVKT
The target in test [3] is Insulin receptor (Homo sapiens) (UniProt P06213). Description: Inhibition of human INSR catalytic domain expressed in baculovirus assessed as substrate phosphorylation using fluorescence-labelled peptides as substrate at 0.2 uM after 90 mins by microfluidic peptide phosphorylation assay.
Another test is filed under the species Homo sapiens. Description: Inhibition of human full length PKA expressed in baculovirus assessed as substrate phosphorylation using fluorescence-labelled peptides as substrate at 0.06 uM after 90 mins by microfluidic peptide phosphorylation assay.
The target in test [4] is T2, Serine/threonine-protein kinase BRSK2 (Homo sapiens) (UniProt Q8IWQ3).
T2 sequence (whole entry): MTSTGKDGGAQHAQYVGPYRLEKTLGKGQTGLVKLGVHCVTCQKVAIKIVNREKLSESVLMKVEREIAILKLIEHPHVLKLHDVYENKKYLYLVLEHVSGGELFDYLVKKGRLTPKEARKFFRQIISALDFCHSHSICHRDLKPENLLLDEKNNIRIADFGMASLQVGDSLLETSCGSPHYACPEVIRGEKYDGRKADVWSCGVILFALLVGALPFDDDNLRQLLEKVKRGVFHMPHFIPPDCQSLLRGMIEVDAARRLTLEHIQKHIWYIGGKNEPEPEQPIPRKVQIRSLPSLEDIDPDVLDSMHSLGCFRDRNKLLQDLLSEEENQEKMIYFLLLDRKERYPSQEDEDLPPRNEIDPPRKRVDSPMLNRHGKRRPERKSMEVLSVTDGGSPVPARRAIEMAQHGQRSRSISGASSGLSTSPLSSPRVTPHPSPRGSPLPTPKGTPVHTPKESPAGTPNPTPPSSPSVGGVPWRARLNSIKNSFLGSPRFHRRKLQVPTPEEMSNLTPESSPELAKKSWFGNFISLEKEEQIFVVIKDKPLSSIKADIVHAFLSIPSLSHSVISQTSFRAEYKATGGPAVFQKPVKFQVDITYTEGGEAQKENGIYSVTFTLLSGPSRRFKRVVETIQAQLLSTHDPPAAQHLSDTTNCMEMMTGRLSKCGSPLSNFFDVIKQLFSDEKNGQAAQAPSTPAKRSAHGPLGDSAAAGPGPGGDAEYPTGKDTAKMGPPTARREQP
Description: Inhibition of human truncated BRSK2 expressed in baculovirus assessed as substrate phosphorylation using fluorescence-labelled peptides as substrate at 9 uM after 90 mins by microfluidic peptide phosphorylation assay.

For test [5], the target named is Tyrosine-protein kinase HCK (Homo sapiens) (UniProt P08631). Description: Inhibition of human HCK catalytic domain expressed in baculovirus assessed as substrate phosphorylation using fluorescence-labelled peptides as substrate at 95 uM after 90 mins by microfluidic peptide phosphorylation assay.
Sequence of Tyrosine-protein kinase HCK (Homo sapiens) (P08631 2-526 limits assumed): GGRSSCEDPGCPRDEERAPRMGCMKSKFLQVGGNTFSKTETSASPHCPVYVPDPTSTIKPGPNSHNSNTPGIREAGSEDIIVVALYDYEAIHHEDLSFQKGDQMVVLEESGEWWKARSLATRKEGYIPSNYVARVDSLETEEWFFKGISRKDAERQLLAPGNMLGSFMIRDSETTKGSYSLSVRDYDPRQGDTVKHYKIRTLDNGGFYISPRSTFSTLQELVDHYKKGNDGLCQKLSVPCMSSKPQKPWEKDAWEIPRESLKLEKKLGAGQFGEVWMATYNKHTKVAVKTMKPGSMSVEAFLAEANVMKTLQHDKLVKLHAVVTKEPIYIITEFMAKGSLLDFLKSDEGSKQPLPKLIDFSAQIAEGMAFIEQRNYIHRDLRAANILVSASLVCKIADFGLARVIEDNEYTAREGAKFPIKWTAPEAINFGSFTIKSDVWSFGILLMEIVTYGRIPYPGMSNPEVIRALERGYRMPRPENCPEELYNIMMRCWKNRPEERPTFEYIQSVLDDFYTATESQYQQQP
The target in test [6] is Rho-associated protein kinase 2 (Homo sapiens) (UniProt O75116). Description: Inhibition of human ROCK2 catalytic domain expressed in baculovirus assessed as substrate phosphorylation using fluorescence-labelled peptides as substrate at 8 uM after 90 mins by microfluidic peptide phosphorylation assay.
Sequence of Rho-associated protein kinase 2 (Homo sapiens) (O75116 whole entry, looked up, the tested form may be a part): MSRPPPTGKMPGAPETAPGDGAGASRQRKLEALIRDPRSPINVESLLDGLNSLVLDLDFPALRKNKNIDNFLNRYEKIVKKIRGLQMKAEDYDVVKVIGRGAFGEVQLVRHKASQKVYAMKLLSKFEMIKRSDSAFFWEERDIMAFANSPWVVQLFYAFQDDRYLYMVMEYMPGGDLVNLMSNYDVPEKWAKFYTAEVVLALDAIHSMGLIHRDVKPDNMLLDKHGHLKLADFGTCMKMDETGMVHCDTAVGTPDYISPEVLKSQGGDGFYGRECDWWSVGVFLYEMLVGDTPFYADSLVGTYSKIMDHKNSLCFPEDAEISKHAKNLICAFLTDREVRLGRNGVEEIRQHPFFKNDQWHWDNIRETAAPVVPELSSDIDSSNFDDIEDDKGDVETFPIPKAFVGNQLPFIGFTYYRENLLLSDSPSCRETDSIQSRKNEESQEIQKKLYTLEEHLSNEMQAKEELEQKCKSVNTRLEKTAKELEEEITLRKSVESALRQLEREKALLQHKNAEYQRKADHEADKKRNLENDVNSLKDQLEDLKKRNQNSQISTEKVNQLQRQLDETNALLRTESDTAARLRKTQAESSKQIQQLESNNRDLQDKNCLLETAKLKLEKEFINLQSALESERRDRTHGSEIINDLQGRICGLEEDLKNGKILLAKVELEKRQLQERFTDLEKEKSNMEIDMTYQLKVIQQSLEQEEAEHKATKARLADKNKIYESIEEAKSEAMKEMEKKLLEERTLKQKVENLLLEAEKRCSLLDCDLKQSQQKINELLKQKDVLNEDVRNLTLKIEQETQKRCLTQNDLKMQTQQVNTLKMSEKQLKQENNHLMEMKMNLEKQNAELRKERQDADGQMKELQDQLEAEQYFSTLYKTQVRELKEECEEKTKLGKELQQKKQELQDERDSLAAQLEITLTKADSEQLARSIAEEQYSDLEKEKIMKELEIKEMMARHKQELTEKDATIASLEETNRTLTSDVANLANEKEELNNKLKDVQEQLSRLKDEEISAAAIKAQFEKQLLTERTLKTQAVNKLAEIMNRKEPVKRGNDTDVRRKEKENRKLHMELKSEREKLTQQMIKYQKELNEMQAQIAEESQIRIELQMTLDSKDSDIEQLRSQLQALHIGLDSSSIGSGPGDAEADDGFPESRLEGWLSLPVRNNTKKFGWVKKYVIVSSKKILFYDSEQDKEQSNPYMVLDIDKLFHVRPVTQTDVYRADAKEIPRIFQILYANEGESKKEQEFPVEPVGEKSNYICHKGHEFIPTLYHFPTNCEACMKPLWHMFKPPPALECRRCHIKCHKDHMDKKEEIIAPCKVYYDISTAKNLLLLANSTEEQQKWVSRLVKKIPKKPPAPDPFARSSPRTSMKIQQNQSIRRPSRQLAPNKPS
Test [7] has as its system Fibroblast growth factor receptor 2 (Homo sapiens), P21802 [N549H]. Description: Inhibition of human FGFR2 N549H mutant catalytic domain expressed in baculovirus assessed as substrate phosphorylation using fluorescence-labelled peptides as substrate at 70 uM after 90 mins by microfluidic peptide phosphorylation assay.
Test [8] deals with Dual specificity tyrosine-phosphorylation-regulated kinase 1A (Rattus norvegicus) (UniProt Q63470). Description: Inhibition of rat full length DYRK1a expressed in Escherichia coli cell assessed as substrate phosphorylation using fluorescence-labelled peptides as substrate at […] after 90 mins by microfluidic peptide phosphorylation assay.
The target in test [9] is Serine/threonine-protein kinase pim-1 (Homo sapiens) (UniProt P11309). Description: Inhibition of human full length PIM1 expressed in baculovirus assessed as substrate phosphorylation using fluorescence-labelled peptides as substrate at 420 uM after 90 mins by microfluidic peptide phosphorylation assay.
Sequence of Serine/threonine-protein kinase pim-1 (Homo sapiens) (P11309 whole entry, looked up): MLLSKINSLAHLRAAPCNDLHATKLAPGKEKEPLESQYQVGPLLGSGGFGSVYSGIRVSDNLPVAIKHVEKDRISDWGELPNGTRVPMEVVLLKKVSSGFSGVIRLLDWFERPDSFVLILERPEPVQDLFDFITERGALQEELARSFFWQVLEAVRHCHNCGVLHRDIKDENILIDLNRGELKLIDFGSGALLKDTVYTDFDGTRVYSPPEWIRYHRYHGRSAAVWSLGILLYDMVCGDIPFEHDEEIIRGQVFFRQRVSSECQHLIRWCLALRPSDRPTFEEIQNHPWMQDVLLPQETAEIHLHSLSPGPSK
In test [10] the target is MAP kinase-activated protein kinase 3 (Homo sapiens) (UniProt Q16644). Description: Inhibition of human full length MAPKAPK3 expressed in Escherichia coli cell assessed as substrate phosphorylation using fluorescence-labelled peptides as substrate at 420 uM after 90 mins by microfluidic peptide phosphorylation assay.
Sequence of MAP kinase-activated protein kinase 3 (Homo sapiens) (Q16644 whole entry, looked up): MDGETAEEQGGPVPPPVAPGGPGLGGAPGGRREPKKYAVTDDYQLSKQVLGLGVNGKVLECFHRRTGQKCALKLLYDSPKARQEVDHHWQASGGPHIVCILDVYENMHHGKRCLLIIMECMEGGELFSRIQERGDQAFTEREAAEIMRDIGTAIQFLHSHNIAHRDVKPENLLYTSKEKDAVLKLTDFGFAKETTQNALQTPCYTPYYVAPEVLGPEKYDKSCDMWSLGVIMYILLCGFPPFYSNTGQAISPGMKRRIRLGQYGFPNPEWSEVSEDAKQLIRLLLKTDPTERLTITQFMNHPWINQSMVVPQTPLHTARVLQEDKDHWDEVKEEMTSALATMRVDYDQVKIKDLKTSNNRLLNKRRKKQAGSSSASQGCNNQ
In test [11] the target is Tyrosine-protein kinase BTK (Homo sapiens) (UniProt Q06187). Description: Inhibition of human full length BTK expressed in baculovirus assessed as substrate phosphorylation using fluorescence-labelled peptides as substrate at 1000 uM after 90 mins by microfluidic peptide phosphorylation assay.
Sequence of Tyrosine-protein kinase BTK (Homo sapiens) (Q06187 whole entry): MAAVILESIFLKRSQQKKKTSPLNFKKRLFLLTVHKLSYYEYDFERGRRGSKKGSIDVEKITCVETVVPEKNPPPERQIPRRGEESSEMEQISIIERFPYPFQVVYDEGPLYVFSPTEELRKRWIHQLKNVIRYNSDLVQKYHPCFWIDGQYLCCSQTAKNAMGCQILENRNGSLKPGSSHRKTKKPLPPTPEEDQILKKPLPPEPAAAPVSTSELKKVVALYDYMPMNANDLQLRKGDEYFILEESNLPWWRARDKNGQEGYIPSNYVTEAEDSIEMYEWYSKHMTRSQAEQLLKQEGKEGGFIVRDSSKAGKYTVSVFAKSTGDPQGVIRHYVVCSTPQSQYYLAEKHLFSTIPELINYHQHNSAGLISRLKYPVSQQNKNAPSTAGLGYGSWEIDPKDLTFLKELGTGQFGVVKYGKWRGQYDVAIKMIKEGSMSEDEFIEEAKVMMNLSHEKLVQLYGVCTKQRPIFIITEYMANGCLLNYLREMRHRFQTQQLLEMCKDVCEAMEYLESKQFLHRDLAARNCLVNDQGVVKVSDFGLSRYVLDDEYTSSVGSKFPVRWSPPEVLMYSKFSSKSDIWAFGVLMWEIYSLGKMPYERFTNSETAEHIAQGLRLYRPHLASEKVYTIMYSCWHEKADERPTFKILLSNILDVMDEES
In test [12] the target is Protein kinase C beta type (Homo sapiens) (UniProt P05771). Description: Inhibition of human full length PKC beta2 expressed in baculovirus assessed as substrate phosphorylation using fluorescence-labelled peptides as substrate at 1000 uM after 90 mins by microfluidic peptide phosphorylation assay.
Sequence of Protein kinase C beta type (Homo sapiens) (P05771 2-671 limits assumed): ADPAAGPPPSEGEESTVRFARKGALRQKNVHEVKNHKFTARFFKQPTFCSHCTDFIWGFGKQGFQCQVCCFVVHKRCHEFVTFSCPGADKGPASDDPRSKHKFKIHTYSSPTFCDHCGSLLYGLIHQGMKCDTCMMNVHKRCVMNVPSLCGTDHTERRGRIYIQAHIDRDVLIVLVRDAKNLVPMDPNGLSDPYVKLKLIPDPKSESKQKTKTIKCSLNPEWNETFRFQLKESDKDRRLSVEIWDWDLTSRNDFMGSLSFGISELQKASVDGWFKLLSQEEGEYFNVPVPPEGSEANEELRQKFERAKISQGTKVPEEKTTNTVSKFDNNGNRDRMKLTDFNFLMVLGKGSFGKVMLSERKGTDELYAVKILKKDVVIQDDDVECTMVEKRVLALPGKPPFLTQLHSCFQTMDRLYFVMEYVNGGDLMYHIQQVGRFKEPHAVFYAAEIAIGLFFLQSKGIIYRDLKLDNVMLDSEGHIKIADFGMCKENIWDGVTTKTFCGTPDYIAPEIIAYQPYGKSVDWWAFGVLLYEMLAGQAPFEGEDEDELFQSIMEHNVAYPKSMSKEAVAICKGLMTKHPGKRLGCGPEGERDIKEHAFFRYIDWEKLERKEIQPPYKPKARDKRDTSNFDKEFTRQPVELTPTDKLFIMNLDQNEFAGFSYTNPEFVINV

Consider `C[C@H](CN(C)C)Oc1nc(Nc2cc3cccc(Cl)c3cn2)cnc1C#N`, for which the inhibition in test [1] worked out at 5.5%.
For the compound `Clc1ccc(C2(c3ccc(-c4ncnc5[nH]cnc45)cc3)CCNCC2)cc1`, the inhibition in test [2] stood at 7%; in test [3], 11%.
In the case of `NC1(Cc2ccc(Cl)cc2)CCN(c2ncnc3[nH]ccc23)CC1`, in the test filed under Homo sapiens, the inhibition amounted to 17%.
Take `NCC1CN(c2ncnc3[nH]c4cnccc4c23)CCO1` (stereo not drawn): the inhibition in test [4] came out at 36%.
As to `NCCc1ccc(-c2ncnc3[nH]cnc23)cc1`, the inhibition in [5] worked out at 48.5%.
As for `NCC1CCN(c2ncnc3[nH]ccc23)CC1`, the inhibition in test [6] was 89.5%.
With `CNCc1ccc(-c2ncnc3[nH]cnc23)cc1`, the inhibition in [7] was determined as 35.5%.
`COC(=O)c1cnc(Nc2cnc(C#N)cn2)cc1NCC1CCNCC1`: in test [8], the inhibition stood at 1.5%.
As for `c1nc(N2CCOCC2)c2nc[nH]c2n1`, the inhibition in test [9] worked out at 31.5%; in test [10], 96.5%.
Turning to `c1cnc2[nH]ccc2c1`, the inhibition was determined as 19% in test [11] and 21% in [12].
